Assay [1] deals with 11-beta-hydroxysteroid dehydrogenase 1 (Mus musculus, UniProt P50172). Put plainly: Human and Mouse 11beta-HSD1 SPA Assay. As for the experimental part:
(§1) Enzyme assays were performed using purified recombinant human or mouse11beta-HSD1. The fractional conversion of cortisone to cortisol was used to determine enzyme activities. The radioactive cortisol generated in the assay was captured by a monoclonal anti-cortisol antibody and SPA beads coated with anti-mouse antibodies.

Assay [2] has as its target 11-beta-hydroxysteroid dehydrogenase 1 (Homo sapiens, UniProt P28845). Put plainly: Human and Mouse 11beta-HSD1 SPA Assay. To be noted: pH 7.2; 22 °C. As to the method: as §1

The structures appear in SMILES notation. pIC50: −log10 of the molar value.

11-beta-hydroxysteroid dehydrogenase 1 (Mus musculus, UniProt P50172), sequence (P50172 whole entry): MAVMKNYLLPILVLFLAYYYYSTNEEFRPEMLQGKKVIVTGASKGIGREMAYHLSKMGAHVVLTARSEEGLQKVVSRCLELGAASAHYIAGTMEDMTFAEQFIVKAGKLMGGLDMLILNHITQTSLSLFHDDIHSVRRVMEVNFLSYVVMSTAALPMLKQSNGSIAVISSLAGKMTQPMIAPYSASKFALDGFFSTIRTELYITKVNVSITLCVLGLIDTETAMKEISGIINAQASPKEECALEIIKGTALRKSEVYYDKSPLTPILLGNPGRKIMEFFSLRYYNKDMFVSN
11-beta-hydroxysteroid dehydrogenase 1 (Homo sapiens, UniProt P28845), sequence (P28845 whole entry): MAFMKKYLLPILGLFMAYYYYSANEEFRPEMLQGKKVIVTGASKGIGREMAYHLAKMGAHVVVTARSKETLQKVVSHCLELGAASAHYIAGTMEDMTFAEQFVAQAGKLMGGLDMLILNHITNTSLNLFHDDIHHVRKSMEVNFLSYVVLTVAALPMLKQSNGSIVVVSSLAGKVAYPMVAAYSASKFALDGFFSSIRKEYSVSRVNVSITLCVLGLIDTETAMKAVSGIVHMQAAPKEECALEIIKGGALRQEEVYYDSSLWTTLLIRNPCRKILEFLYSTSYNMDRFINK

`CC(C)(Oc1ccc(F)cc1Cl)C(=O)N[C@H]1C2C[C@@H]3C[C@@H]1C[C@@](c1nnn[nH]1)(C2)C3` [2-(2-chloro-4-fluorophenoxy)-2-methyl-N-[(1R,2S,5R,7S)-5-(1H-1,2,3,4-tetrazol-5-yl)adamantan-2-yl]propanamide] showed a pIC50 in assay [1] of 8.00.
Same read-out and setting: then `CNC(=O)NC(=O)[C@@]12CC3C[C@H](C[C@H](C1)[C@H]3NC(=O)C(C)(C)Oc1ccc(Cl)cc1)C2` [2-(4-chlorophenoxy)-2-methyl-N-[(1R,2S,5R,7S)-5-{[(methylcarbamoyl)amino]carbonyl}adamantan-2-yl]propanamide], with 8.10; and `CC(C)(Oc1ccc(Cl)cc1)C(=O)N[C@H]1C2C[C@@H]3C[C@@H]1C[C@@](CO)(C2)C3` [2-(4-chlorophenoxy)-N-[(1R,2S,5R,7S)-5-(hydroxymethyl)adamantan-2-yl]-2-methylpropanamide], with 8.22.
`CC(C)(Oc1ccc(Cl)cc1)C(=O)N[C@H]1C2C[C@@H]3C[C@@H]1C[C@@](COCC(=O)O)(C2)C3` [2-{[(1R,3R,4S,7S)-4-[2-(4-chlorophenoxy)-2-methylpropanamido]adamantan-1-yl]methoxy}acetic acid]: the pIC50 was 6.96 in assay [2] and 6.68 in assay [1].
In assay [1], `CC(C)(Oc1ccc(Cl)cc1)C(=O)N[C@H]1C2C[C@@H]3C[C@@H]1C[C@@](C(=O)NCc1ccc(C(=O)O)cc1)(C2)C3` [4-({[(1R,3R,4S,7S)-4-[2-(4-chlorophenoxy)-2-methylpropanamido]adamantan-1-yl]formamido}methyl)benzoic acid] showed a pIC50 of 7.92.
In assay [1], `CC(C)(Oc1ccccc1)C(=O)N[C@H]1C2C[C@@H]3C[C@@H]1C[C@@](C(N)=O)(C2)C3` [(1R,3R,4S,7S)-4-(2-methyl-2-phenoxypropanamido)adamantane-1-carboxamide] had a pIC50 of 8.40.
On the same count and under the same terms, then `CC(C)(Oc1ccccc1)C(=O)N[C@H]1C2C[C@@H]3C[C@@H]1C[C@@](C(=O)O)(C2)C3` [(1R,3R,4S,7S)-4-(2-methyl-2-phenoxypropanamido)adamantane-1-carboxylic acid], with 6.92.
In the case of `CC(C)(Oc1ccccc1Cl)C(=O)N[C@H]1C2C[C@@H]3C[C@@H]1C[C@@](C(=O)NS(C)(=O)=O)(C2)C3` [(1R,3R,4S,7S)-4-[2-(2-chlorophenoxy)-2-methylpropanamido]-N-methanesulfonyladamantane-1-carboxamide], the values for the pIC50 in assay [2] and in assay [1] were 7.02 and 7.55, respectively.
The like results for `CC(C)(Oc1ccccc1Cl)C(=O)N[C@H]1C2C[C@@H]3C[C@@H]1C[C@@](C(=O)O)(C2)C3` [(1R,3R,4S,7S)-4-[2-(2-chlorophenoxy)-2-methylpropanamido]adamantane-1-carboxylic acid] were, in that order, 8.10 and 8.10.
The like results for `CC(C)(Oc1cccc(Cl)c1)C(=O)N[C@H]1C2C[C@@H]3C[C@@H]1C[C@@](C(=O)O)(C2)C3` [(1R,3R,4S,7S)-4-[2-(3-chlorophenoxy)-2-methylpropanamido]adamantane-1-carboxylic acid] were, in that order, 7.82 and 7.29.
Consider `CC(C)(Oc1ccc(Cl)cc1)C(=O)N[C@H]1C2C[C@@H]3C[C@@H]1C[C@@](C(=O)NCc1cncs1)(C2)C3` [(1R,3R,4S,7S)-4-[2-(4-chlorophenoxy)-2-methylpropanamido]-N-(1,3-thiazol-5-ylmethyl)adamantane-1-carboxamide], for which the negative-log IC50 (pIC50) in assay [1] was 7.96.
Take `CC(C)(Oc1ccc(Cl)cc1)C(=O)N[C@H]1C2C[C@@H]3C[C@@H]1C[C@@](C(=O)NCc1ccncc1)(C2)C3` [(1R,3R,4S,7S)-4-[2-(4-chlorophenoxy)-2-methylpropanamido]-N-(pyridin-4-ylmethyl)adamantane-1-carboxamide]: the figures for the negative logarithm of the IC50 (pIC50) in assay [2] and in assay [1] were 7.60 and 7.85, respectively.
The matching figures for `CC(C)(Oc1ccc(Cl)cc1)C(=O)N[C@H]1C2C[C@@H]3C[C@@H]1C[C@@](C(=O)NCc1ccc(S(N)(=O)=O)cc1)(C2)C3` [(1R,3R,4S,7S)-4-[2-(4-chlorophenoxy)-2-methylpropanamido]-N-[(4-sulfamoylphenyl)methyl]adamantane-1-carboxamide]: 7.29 and 7.62.
With `CC(C)(Oc1ccc(Cl)cc1)C(=O)N[C@H]1C2C[C@@H]3C[C@@H]1C[C@@](C(=O)NCc1ccc(-c4nnn[nH]4)cc1)(C2)C3` [(1R,3R,4S,7S)-4-[2-(4-chlorophenoxy)-2-methylpropanamido]-N-{[4-(1H-1,2,3,4-tetrazol-5-yl)phenyl]methyl}adamantane-1-carboxamide], the negative logarithm of the IC50 (pIC50) in assay [1] was 7.74.
Still for that read-out and setting: then `CC(C)(Oc1ccc(Cl)cc1)C(=O)N[C@H]1C2C[C@@H]3C[C@@H]1C[C@@](C(N)=O)(C2)C3` [(1R,3R,4S,7S)-4-[2-(4-chlorophenoxy)-2-methylpropanamido]adamantane-1-carboxamide], with 8.52; and `CC(C)(Oc1ccc(Cl)cc1)C(=O)N[C@H]1C2C[C@@H]3C[C@@H]1C[C@@](C(=O)O)(C2)C3` [(1R,3R,4S,7S)-4-[2-(4-chlorophenoxy)-2-methylpropanamido]adamantane-1-carboxylic acid], with 7.15.
Same read-out and setting: then `COc1ccc(OC(C)(C)C(=O)N[C@H]2C3C[C@@H]4C[C@@H]2C[C@@](C(N)=O)(C3)C4)cc1` [(1R,3R,4S,7S)-4-[2-(4-methoxyphenoxy)-2-methylpropanamido]adamantane-1-carboxamide], with 8.40.
As to `CC(C)(Oc1ccccc1Cl)C(=O)N[C@H]1C2C[C@@H]3C[C@@H]1C[C@@](C(=O)NS(=O)(=O)c1ccccc1)(C2)C3` [(1R,3R,4S,7S)-N-(benzenesulfonyl)-4-[2-(2-chlorophenoxy)-2-methylpropanamido]adamantane-1-carboxamide], the pIC50 is 6.30 in assay [2] and 6.00 in assay [1].
Turning to `CC(C)(Oc1ccc(Cl)cc1)C(=O)N[C@H]1C2C[C@@H]3C[C@@H]1C[C@@](C(=O)NCC(N)=O)(C2)C3` [N-[(1R,2S,5R,7S)-5-[(carbamoylmethyl)carbamoyl]adamantan-2-yl]-2-(4-chlorophenoxy)-2-methylpropanamide], in assay [1], the pIC50 is 8.40.

The term pIC50 denotes the negative decadic logarithm of the IC50, by convention in mol/L. Read a low pIC50 as a high IC50.
